Assays:
[1] = target: T1, Orexin/Hypocretin receptor type 1 (Homo sapiens, UniProt O43613); assay: Displacement of [3H]SB-674042 from recombinant human OX1R extracted from HEK293T membrane by radioligand binding assay; type: cell membranes
T1 sequence (O43613 whole entry): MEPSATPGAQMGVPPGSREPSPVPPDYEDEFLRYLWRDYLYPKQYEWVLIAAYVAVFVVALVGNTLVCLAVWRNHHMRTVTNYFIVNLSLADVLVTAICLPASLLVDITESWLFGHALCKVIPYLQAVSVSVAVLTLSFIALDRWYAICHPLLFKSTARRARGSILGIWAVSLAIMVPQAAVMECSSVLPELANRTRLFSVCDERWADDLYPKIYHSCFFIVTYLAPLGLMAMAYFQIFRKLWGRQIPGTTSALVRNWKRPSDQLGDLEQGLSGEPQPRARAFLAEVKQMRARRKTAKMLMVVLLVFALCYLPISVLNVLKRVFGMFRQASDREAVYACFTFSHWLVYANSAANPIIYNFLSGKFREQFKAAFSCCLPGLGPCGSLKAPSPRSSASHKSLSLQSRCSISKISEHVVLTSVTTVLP

Orexin receptor type 2 = target: T2, Orexin receptor type 2 (Homo sapiens, UniProt O43614); assay: Displacement of [3H]EMPA from recombinant human OX2R extracted from HEK293T membrane by radioligand binding assay; type: cell membranes
T2 sequence (O43614 whole entry): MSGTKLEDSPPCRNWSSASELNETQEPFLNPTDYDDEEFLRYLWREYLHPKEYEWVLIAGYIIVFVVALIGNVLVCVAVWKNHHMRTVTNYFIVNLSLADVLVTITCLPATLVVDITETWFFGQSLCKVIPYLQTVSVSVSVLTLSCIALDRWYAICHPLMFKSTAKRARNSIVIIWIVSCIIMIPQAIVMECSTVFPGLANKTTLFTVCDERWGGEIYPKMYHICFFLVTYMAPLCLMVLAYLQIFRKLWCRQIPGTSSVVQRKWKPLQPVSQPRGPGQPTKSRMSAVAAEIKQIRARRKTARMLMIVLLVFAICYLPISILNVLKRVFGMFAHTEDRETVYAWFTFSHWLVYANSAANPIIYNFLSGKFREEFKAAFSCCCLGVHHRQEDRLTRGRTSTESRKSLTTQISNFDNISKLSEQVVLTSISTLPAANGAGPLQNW

Homo sapiens = species on record: Homo sapiens; assay: Selectivity ratio of IC50 for recombinant human OX2R extracted from HEK293T cell membrane to IC50 for recombinant human OX1R extracted from HEK293T cell membrane
[2] = Biodistribution in male ddY mouse pancreas administered intravenously and measured at 10 mins postinjection by gamma counter analysis; type: ADME, organism-based; conditions: in vivo, iv
[3] = Biodistribution in male ddY mouse liver administered intravenously and measured at 30 mins postinjection by gamma counter analysis; type: ADME, organism-based; conditions: in vivo, iv, 0.5 h
[4] = Biodistribution in male ddY mouse pancreas administered intravenously and measured at 30 mins postinjection by gamma counter analysis; type: ADME, organism-based; conditions: in vivo, iv, 0.5 h
[5] = Biodistribution in male ddY mouse pancreas administered intravenously and measured at 2 mins postinjection by gamma counter analysis; type: ADME, organism-based; conditions: in vivo, iv
[6] = Biodistribution in male ddY mouse blood administered intravenously and measured at 10 mins postinjection by gamma counter analysis; type: ADME, organism-based; conditions: in vivo, iv
[7] = Biodistribution in male ddY mouse intestine administered intravenously and measured at 2 mins postinjection by gamma counter analysis; type: ADME, organism-based; conditions: in vivo, iv
[8] = Biodistribution in male ddY mouse bone administered intravenously and measured at 30 mins postinjection by gamma counter analysis; type: ADME, organism-based, Bone element; conditions: in vivo, iv, 0.5 h
[9] = Biodistribution in male ddY mouse kidney administered intravenously and measured at 10 mins postinjection by gamma counter analysis; type: ADME, organism-based; conditions: in vivo, iv
[10] = Biodistribution in male ddY mouse lung administered intravenously and measured at 30 mins postinjection by gamma counter analysis; type: ADME, organism-based; conditions: in vivo, iv, 0.5 h
[11] = Biodistribution in male ddY mouse pancreas administered intravenously and measured at 60 mins postinjection by gamma counter analysis; type: ADME, organism-based; conditions: in vivo, iv, 1 h
[12] = Biodistribution in male ddY mouse liver administered intravenously and measured at 10 mins postinjection by gamma counter analysis; type: ADME, organism-based; conditions: in vivo, iv
[13] = Biodistribution in male ddY mouse lung administered intravenously and measured at 2 mins postinjection by gamma counter analysis; type: ADME, organism-based; conditions: in vivo, iv
[14] = Biodistribution in male ddY mouse brain administered intravenously and measured at 30 mins postinjection by gamma counter analysis; type: ADME, organism-based; conditions: in vivo, iv, 0.5 h
[15] = Biodistribution in male ddY mouse kidney administered intravenously and measured at 60 mins postinjection by gamma counter analysis; type: ADME, organism-based; conditions: in vivo, iv, 1 h
[16] = Biodistribution in male ddY mouse lung administered intravenously and measured at 10 mins postinjection by gamma counter analysis; type: ADME, organism-based; conditions: in vivo, iv
[17] = Biodistribution in male ddY mouse stomach administered intravenously and measured per organ at 10 mins postinjection by gamma counter analysis; type: ADME, organism-based; conditions: in vivo, iv
[18] = Biodistribution in male ddY mouse intestine administered intravenously and measured at 60 mins postinjection by gamma counter analysis; type: ADME, organism-based; conditions: in vivo, iv, 1 h
[19] = Biodistribution in male ddY mouse brain administered intravenously and measured at 60 mins postinjection by gamma counter analysis; type: ADME, organism-based; conditions: in vivo, iv, 1 h
[20] = Biodistribution in male ddY mouse bone administered intravenously and measured at 60 mins postinjection by gamma counter analysis; type: ADME, organism-based, Bone element; conditions: in vivo, iv, 1 h
[21] = Biodistribution in male ddY mouse stomach administered intravenously and measured per organ at 2 mins postinjection by gamma counter analysis; type: ADME, organism-based; conditions: in vivo, iv
[22] = Biodistribution in male ddY mouse blood administered intravenously and measured at 2 mins postinjection by gamma counter analysis; type: ADME, organism-based; conditions: in vivo, iv
[23] = Biodistribution in male ddY mouse bone administered intravenously and measured at 2 mins postinjection by gamma counter analysis; type: ADME, organism-based, Bone element; conditions: in vivo, iv
[24] = Biodistribution in male ddY mouse intestine administered intravenously and measured at 30 mins postinjection by gamma counter analysis; type: ADME, organism-based; conditions: in vivo, iv, 0.5 h
[25] = Biodistribution in male ddY mouse spleen administered intravenously and measured at 10 mins postinjection by gamma counter analysis; type: ADME, organism-based; conditions: in vivo, iv
[26] = Biodistribution in male ddY mouse heart administered intravenously and measured at 30 mins postinjection by gamma counter analysis; type: ADME, organism-based; conditions: in vivo, iv, 0.5 h
[27] = Biodistribution in male ddY mouse blood administered intravenously and measured at 60 mins postinjection by gamma counter analysis; type: ADME, organism-based; conditions: in vivo, iv, 1 h
[28] = Biodistribution in male ddY mouse kidney administered intravenously and measured at 2 mins postinjection by gamma counter analysis; type: ADME, organism-based; conditions: in vivo, iv
[29] = Biodistribution in male ddY mouse kidney administered intravenously and measured at 30 mins postinjection by gamma counter analysis; type: ADME, organism-based; conditions: in vivo, iv, 0.5 h
[30] = Biodistribution in male ddY mouse spleen administered intravenously and measured at 60 mins postinjection by gamma counter analysis; type: ADME, organism-based; conditions: in vivo, iv, 1 h
[31] = Biodistribution in male ddY mouse heart administered intravenously and measured at 60 mins postinjection by gamma counter analysis; type: ADME, organism-based; conditions: in vivo, iv, 1 h
[32] = Biodistribution in male ddY mouse blood administered intravenously and measured at 30 mins postinjection by gamma counter analysis; type: ADME, organism-based; conditions: in vivo, iv, 0.5 h
[33] = Biodistribution in male ddY mouse stomach administered intravenously and measured per organ at 30 mins postinjection by gamma counter analysis; type: ADME, organism-based; conditions: in vivo, iv, 0.5 h
[34] = Biodistribution in male ddY mouse liver administered intravenously and measured at 60 mins postinjection by gamma counter analysis; type: ADME, organism-based; conditions: in vivo, iv, 1 h
[35] = Biodistribution in male ddY mouse spleen administered intravenously and measured at 2 mins postinjection by gamma counter analysis; type: ADME, organism-based; conditions: in vivo, iv
[36] = Biodistribution in male ddY mouse spleen administered intravenously and measured at 30 mins postinjection by gamma counter analysis; type: ADME, organism-based; conditions: in vivo, iv, 0.5 h
[37] = Biodistribution in male ddY mouse heart administered intravenously and measured at 2 mins postinjection by gamma counter analysis; type: ADME, organism-based; conditions: in vivo, iv
[38] = Biodistribution in male ddY mouse heart administered intravenously and measured at 10 mins postinjection by gamma counter analysis; type: ADME, organism-based; conditions: in vivo, iv
[39] = Biodistribution in male ddY mouse brain administered intravenously and measured at 2 mins postinjection by gamma counter analysis; type: ADME, organism-based; conditions: in vivo, iv
[40] = Biodistribution in male ddY mouse bone administered intravenously and measured at 10 mins postinjection by gamma counter analysis; type: ADME, organism-based, Bone element; conditions: in vivo, iv
[41] = Biodistribution in male ddY mouse stomach administered intravenously and measured per organ at 60 mins postinjection by gamma counter analysis; type: ADME, organism-based; conditions: in vivo, iv, 1 h
[42] = Biodistribution in male ddY mouse lung administered intravenously and measured at 60 mins postinjection by gamma counter analysis; type: ADME, organism-based; conditions: in vivo, iv, 1 h
[43] = Biodistribution in male ddY mouse intestine administered intravenously and measured at 10 mins postinjection by gamma counter analysis; type: ADME, organism-based; conditions: in vivo, iv
[44] = Biodistribution in male ddY mouse liver administered intravenously and measured at 2 mins postinjection by gamma counter analysis; type: ADME, organism-based; conditions: in vivo, iv
[45] = Biodistribution in male ddY mouse brain administered intravenously and measured at 10 mins postinjection by gamma counter analysis; type: ADME, organism-based; conditions: in vivo, iv

CC[C@H](C)[C@H]1CN(c2nc3cc(Cl)ccc3o2)CCCN1C(=O)c1cc(C)ccc1-n1nccn1
IC50 [1]: 0.72 nM
IC50 (Orexin receptor type 2): 54 nM
Ratio IC50 (Homo sapiens): 75

Cc1ccc(-n2nccn2)c(C(=O)N2CCCN(c3nc4ccc([18F])cc4s3)C[C@@H]2C)c1
Drug uptake [2]: 2.95 % ID/g
Drug uptake [3]: 14.7 % ID/g
Drug uptake [4]: 0.67 % ID/g
Drug uptake [5]: 5.89 % ID/g
Drug uptake [6]: 2.91 % ID/g
Drug uptake [7]: 3.33 % ID/g
Drug uptake [8]: 13.2 % ID/g
Drug uptake [9]: 5.23 % ID/g
Drug uptake [10]: 1.2 % ID/g
Drug uptake [11]: 0.26 % ID/g
Drug uptake [12]: 26.9 % ID/g
Drug uptake [13]: 6.58 % ID/g
Drug uptake [14]: 0.22 % ID/g
Drug uptake [15]: 0.81 % ID/g
Drug uptake [16]: 3.43 % ID/g
Drug uptake [17]: 1.65 %ID
Drug uptake [18]: 16.3 % ID/g
Drug uptake [19]: 0.11 % ID/g
Drug uptake [20]: 16 % ID/g
Drug uptake [21]: 1.15 %ID
Drug uptake [22]: 4.44 % ID/g
Drug uptake [23]: 3.11 % ID/g
Drug uptake [24]: 11.8 % ID/g
Drug uptake [25]: 2.38 % ID/g
Drug uptake [26]: 1.23 % ID/g
Drug uptake [27]: 1.46 % ID/g
Drug uptake [28]: 10.3 % ID/g
Drug uptake [29]: 1.89 % ID/g
Drug uptake [30]: 0.42 % ID/g
Drug uptake [31]: 0.43 % ID/g
Drug uptake [32]: 1.44 % ID/g
Drug uptake [33]: 1.35 %ID
Drug uptake [34]: 7.53 % ID/g
Drug uptake [35]: 2.92 % ID/g
Drug uptake [36]: 0.9 % ID/g
Drug uptake [37]: 7.6 % ID/g
Drug uptake [38]: 3.11 % ID/g
Drug uptake [39]: 2.42 % ID/g
Drug uptake [40]: 4.94 % ID/g
Drug uptake [41]: 0.87 %ID
Drug uptake [42]: 0.48 % ID/g
Drug uptake [43]: 6.23 % ID/g
Drug uptake [44]: 13.3 % ID/g
Drug uptake [45]: 0.98 % ID/g

Reference: ChEMBL document CHEMBL6120977, “Structure-Affinity-Pharmacokinetics Relationships of Novel 18F-Labeled 1,4-Diazepane Derivatives for Orexin 1 Receptor Imaging” (J Med Chem, 2024)
